Source: patent US3982931A, “N,N-di-sec.butyl-benzamide herbicides” (priority 1967, dated 1976)

Columns and labels:
[1] = system: triticum vulgare L. (wheat); assay: activity on agrarian species, soil treatment one day after sowing; format: in vivo; details: in vivo
Source text: (§1) The infesting species and the agrarian species have been indicated in Table 1 by letters, as follows:
N = triticum vulgare L. (wheat)
(§2) Method of evaluation of the results (of tests):
(§3) 0 = no activity and no difference with respect to the control;
(§4) 1 slight differences with respect to the control;
(§5) 3 = considerable activity with damages that definitely impair the further development of most of the small plants; an activity degree already useful for practical purposes;
(§6) 4 = maximum of activity with lack of germination or total containment of the small plants in the emerging stage.
(§7) In the case of an intermediate activity between two classes of the scale, both values are recorded with the one which corresponds to the preeminent activity preceding.
(§8) TABLE 2 reports the activity data of other compounds that fall within the class which is the object of this invention.
(§9) TABLE 3 reports data on the herbicidal activity against infesting herbs, while TABLE 4 reports data concerning the activity on useful species of agricultural cultivations. These tables employ the criterion explained previously. The product was spread on the soil one day after sowing, in quantities of 1, 3, 6, 8, 10, 12 and 14 kg/ha.

[2] = system: phaseolus vulgaris (bean); assay: as above; format: in vivo, Phaseolus vulgaris L.; details: in vivo
Source text: as §1
I = phaseolus vulgaris (bean)
as §2, §3, §4, §5, §6, §7, §8, §9

[3] = system: amaranthus retroflexus L.; assay: herbicidal activity, soil treatment one day after sowing; format: in vivo
vicia sativa L. = assay: as above; format: in vivo
Procedure, shortened: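 Pre-emergence soil treatment one day after sowing; activity scored visually on a […] scale against untreated control, from slight difference (1) to no germination or total containment at emergence (4); intermediate activity recorded as both classes, preeminent value first.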

[4] = system: echinocloa crus-galli R.S.; assay: as above; format: in vivo
setaria glauca L. = assay: as above; format: in vivo
avena sativa (oats) = assay: activity on agrarian species, soil treatment one day after sowing; format: in vivo, Avena sativa L.; details: in vivo
Source text: as §1, §2, §3, §4, §5, §6, §7, §8, §9

oryza sativa L. (rice) = assay: as above; format: in vivo; details: in vivo
Source text: as §1
P = oryza sativa L. (rice)
as §2, §3, §4, §5, §6, §7, §8, §9

pisum sativum L. (pea) = assay: as above; format: in vivo; details: in vivo
Source text: as §1
L = pisum sativum L. (pea)
as §2, §3, §4, §5, §6, §7, §8
TABLE 3 reports data on the herbicidal activity against infesting herbs, while TABLE 4 reports data concerning the activity on useful species of agricultural cultivations. These tables employ the criterion explained previously. […]

chenopodium album L. = assay: herbicidal activity, soil treatment one day after sowing; format: in vivo
artemisia vulgaris L. = assay: as above; format: in vivo
zea mais L. (corn) = assay: activity on agrarian species, soil treatment one day after sowing; format: in vivo; details: in vivo
Source text: as §1, §2, §3, §4, §5, §6, §7, §8, §9

[5] = system: beta vulgaris L. (sugar-beet); assay: as above; format: in vivo; details: in vivo
Source text: as §1
H = beta vulgaris L. (sugar-beet)
as §2, §3, §4, §5, §6, §7, §8, §9

SMILES	activity on N, 0-4 scale [1]	activity on I, 0-4 scale [2]	activity on A, 0-4 scale ([3]; 4 kg/ha)	activity on A, 0-4 scale ([3]; 6 kg/ha)	activity on F, 0-4 scale (vicia sativa L.; 2 kg/ha)	activity on F, 0-4 scale (vicia sativa L.; 6 kg/ha)	activity on D, 0-4 scale ([4]; 2 kg/ha)	activity on D, 0-4 scale ([4]; 4 kg/ha)	activity on D, 0-4 scale ([4]; 6 kg/ha)	activity on E, 0-4 scale (setaria glauca L.; 4 kg/ha)	activity on E, 0-4 scale (setaria glauca L.; 6 kg/ha)	activity on G, 0-4 scale (avena sativa (oats))	activity on P, 0-4 scale (oryza sativa L. (rice))	activity on L, 0-4 scale (pisum sativum L. (pea))	activity on C, 0-4 scale (chenopodium album L.; 2 kg/ha)	activity on C, 0-4 scale (chenopodium album L.; 4 kg/ha)	activity on C, 0-4 scale (chenopodium album L.; 6 kg/ha)	activity on B, 0-4 scale (artemisia vulgaris L.; 4 kg/ha)	activity on O, 0-4 scale (zea mais L. (corn))	activity on B, 0-4 scale (artemisia vulgaris L.; 6 kg/ha)	also measured
CCC(C)N(C(=O)c1ccc(Cl)c(Cl)c1Cl)C(C)CC (stereo not drawn) [PA488, 2,3,4-trichloro-N,N-di-sec.butyl-benzamide]	0	0	1	3-4	0	0	3-4	4	4	4	4	0	0	0	1-2	3	3	0-1			activity on A, 0-4 scale ([3]; 2 kg/ha): 0; activity on F, 0-4 scale (vicia sativa L.; 4 kg/ha): 0; activity on D, 0-4 scale ([4]; 1 kg/ha): 2; activity on B, 0-4 scale (artemisia vulgaris L.; 2 kg/ha): 0
CCN(CC)C(=O)c1cccc(Cl)c1 [PA321, 3,chloro-N,N-diethyl-benzamide, reference compound]	2-3	1-0		1-2		1			1		1	1	2	2			1-2		0-1	2	
NC(=O)c1ccccc1Cl [C, 2,chloro-benzamide, reference compound]	0-1			2		2-3			0-1		0		0-1				2			1	
CCC(C)N(C(=O)c1cccc(I)c1)C(C)CC (stereo not drawn) [PA491, 3-iodo-N,N-di-sec.butyl-benzamide]	0	0	1-2	3-4	0	1	3		4		4	0	0	0	2	2-3	3-4	3	0	4	activity on A, 0-4 scale ([3]; 2 kg/ha): 1; activity on F, 0-4 scale (vicia sativa L.; 4 kg/ha): 0; activity on E, 0-4 scale (setaria glauca L.; 2 kg/ha): 3; activity on B, 0-4 scale (artemisia vulgaris L.; 2 kg/ha): 1
CCC(C)N(C(=O)c1ccc(Br)c(C)c1)C(C)CC (stereo not drawn) [PA481, 3-methyl,4-bromo-N,N-di-sec.butyl-benzamide]	0	0				0-1					3-4	0	0	0			2-3		0	3	
CCC(C)N(C(=O)c1cc(Cl)c(Cl)cc1Cl)C(C)CC (stereo not drawn) [PA338, 2,4,5-trichloro-N,N-di-sec.butyl-benzamide]	0	0		2		0-1	2-3	3	3-4	3	3-4	0	0	0			2		0	1-2	activity on E, 0-4 scale (setaria glauca L.; 2 kg/ha): 2-3
CCC(C)N(C(=O)c1cccc(C)c1)C(C)CC (stereo not drawn) [PA226, 3-methyl-N,N-di-sec.butyl-benzamide]		0	1-2	2	0	0	2-3	3	4	3-4	4	0	0	0	0-1	1	1-2	1-2	0	1-2	activity on F, 0-4 scale (vicia sativa L.; 4 kg/ha): 0; activity on E, 0-4 scale (setaria glauca L.; 2 kg/ha): 2; activity on B, 0-4 scale (artemisia vulgaris L.; 2 kg/ha): 1
CCC(C)N(C(=O)c1cccc(Br)c1)C(C)CC (stereo not drawn) [PA337/3/Br, 3-bromo-N,N-di-sec.butyl-benzamide]	0		2-3		0-1		2	4	4	4	4	0	0	0	1	3	4	1	0	3	activity on H, 0-4 scale [5]: 1; activity on A, 0-4 scale ([3]; 2 kg/ha): 1; activity on E, 0-4 scale (setaria glauca L.; 2 kg/ha): 2-3
